Experimental data as given in US20090036461A1, “Use of Azabicyclo Hexane Derivatives” (priority 2005, published 2009).

What was measured:
male rats [1] = assay: sexual incentive motivation test in male rats after acute administration; type: in vivo, Wistar rats; details: -1 hour; for Time sexual incentive zone (s) / Time social incentive zone / n. of visits social incentive zone / n. of visits to sex. Incentive zone: male rats, n = 9, mean ± s.e.m.
Method: (§1) Background: In order to evaluate the effect on natural rewards and to potentially differentiate this approach compared with clinically active gold standards, the effect of the title compound (0.03, 0.3 and 3 mg/kg i.p.; −1 hour, prepared in an analogous way with Example 40) on sexual desire and consummatory performance was evaluated in the rat after acute administration. The effect of the title compound was assessed according to a Latin squared experimental design in male (about 300 g upon arrival) and female (250 g upon arrival) Wistar rats.
(§2) Method—Male rats, sexually experienced were treated with the title compound and submitted 1-hr later to a sexual incentive motivation test (10 minutes) in which male rats were singly exposed to receptive female and active male incentives (Agmo A., Journal of Comparative Psychology. 117(1), March 2003, 3-14). The following parameters were scored: (1) time spent in the incentive zones (close to the incentive cage); (2) number of visits to the zones, and (3) preference score (time spent in the sexual incentive zone/(time in the sexual incentive zone+time in the social incentive zone)). Immediately after the incentive motivation test each subject was transferred to an observation cage in the presence of a receptive female and its copulatory behaviour was then recorded until the end of the 1st post-ejaculatory interval. In the observation cage, the following behavioural parameters were recorded: (1) mount latency (time from the introduction of the female until the first mount with pelvic thrusting); (2) intromission latency (time from the introduction of the female until the first mount with vaginal penetration); (3) ejaculation latency (time from the 1st intromission until ejaculation); (4) post-ejaculatory interval (time from ejaculation until the following intromission); (5) number of mounts, and (6) number of intromission.
(§3) Results—Data are expressed as mean ±s.e.m.

D3 = D3 (Homo sapiens, UniProt P35462); assay: functional pKi (fpKi) at D3, comparison of separated enantiomers; type: biochemical; details: difference in fpKi between the two separated enantiomers of the same example
Sequence of D3 (P35462 whole entry): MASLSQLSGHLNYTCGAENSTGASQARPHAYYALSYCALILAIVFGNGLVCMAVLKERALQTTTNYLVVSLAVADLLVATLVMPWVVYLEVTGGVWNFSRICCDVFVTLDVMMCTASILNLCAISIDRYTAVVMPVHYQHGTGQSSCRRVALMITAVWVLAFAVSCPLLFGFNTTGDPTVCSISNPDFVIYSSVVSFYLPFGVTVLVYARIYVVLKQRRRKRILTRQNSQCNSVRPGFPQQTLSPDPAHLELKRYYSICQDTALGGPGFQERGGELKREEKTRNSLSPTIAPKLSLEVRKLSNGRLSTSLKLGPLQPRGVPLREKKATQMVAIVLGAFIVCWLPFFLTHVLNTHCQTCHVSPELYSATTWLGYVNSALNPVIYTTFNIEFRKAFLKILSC

male rats [2] = assay: copulatory (consummatory) behaviour of male rats with a receptive female; type: in vivo, Wistar rats; details: -1 hour; for Ejaculation latency / Intromission latency / Mount latency / Post ejaculatory interval / n. of intromissions / n. of mounts: male rats, n = 9, mean ± s.e.m.
Method: as §1, §2, §3

[3] = 0.03, 0.3 and 3 mg/kg i.p., result in words

fpKi (D3) higher than the other enantiomer (D3): > 1 log-unit
SMILES: Cc1ncoc1-c1nnc(SCCCN2C[C@@H]3C[C@]3(c3ccc(C(F)(F)F)cc3F)C2)n1C.Cl (single isomer, unassigned) [Example 40]
effect on sexual desire of male rats exposed to sexual and social stimuli (male rats [1]; [3]): did not affect sexual desire
Time sexual incentive zone (s) (male rats [1]; 0.03 mg/kg i.p.): 367.57 ± 23.53++ s
Time social incentive zone (male rats [1]; 0.03 mg/kg i.p.): 73.69 ± 12.48 s
n. of visits social incentive zone (male rats [1]; 0.03 mg/kg i.p.): 15.33 ± 1.60
n. of visits to sex. Incentive zone (male rats [1]; 0.03 mg/kg i.p.): 23.44 ± 1.95++
Time sexual incentive zone (s) (male rats [1]; 0.3 mg/kg i.p.): 335.12 ± 32.47++ s
Time social incentive zone (male rats [1]; 0.3 mg/kg i.p.): 86.84 ± 13.38 s
n. of visits social incentive zone (male rats [1]; 0.3 mg/kg i.p.): 17.44 ± 2.49
n. of visits to sex. Incentive zone (male rats [1]; 0.3 mg/kg i.p.): 23.89 ± 2.06++
Time sexual incentive zone (s) (male rats [1]; 3 mg/kg i.p.): 355.91 ± 13.70++ s
Time social incentive zone (male rats [1]; 3 mg/kg i.p.): 76.83 ± 10.05 s
n. of visits social incentive zone (male rats [1]; 3 mg/kg i.p.): 14.00 ± 1.85
n. of visits to sex. Incentive zone (male rats [1]; 3 mg/kg i.p.): 21.78 ± 1.72++
effect on ejaculation patterns (male rats [2]; [3]): significant increase in the number of mounts, ejaculation latency and post-ejaculatory interval
Ejaculation latency (male rats [2]; 0.03 mg/kg i.p.): 202.2 ± 19.6 s
Intromission latency (male rats [2]; 0.03 mg/kg i.p.): 6.3 ± 0.8 s
Mount latency (male rats [2]; 0.03 mg/kg i.p.): 4.6 ± 0.8 s
Post ejaculatory interval (male rats [2]; 0.03 mg/kg i.p.): 403.0 ± 37.4 s
n. of intromissions (male rats [2]; 0.03 mg/kg i.p.): 15.8 ± 1.3
n. of mounts (male rats [2]; 0.03 mg/kg i.p.): 3.4 ± 0.7
Ejaculation latency (male rats [2]; 0.3 mg/kg i.p.): 228.3 ± 53.3 s
Intromission latency (male rats [2]; 0.3 mg/kg i.p.): 7.0 ± 1.1 s
Mount latency (male rats [2]; 0.3 mg/kg i.p.): 5.3 ± 0.8 s
Post ejaculatory interval (male rats [2]; 0.3 mg/kg i.p.): 455.3 ± 73.4 s
n. of intromissions (male rats [2]; 0.3 mg/kg i.p.): 15.6 ± 1.5
n. of mounts (male rats [2]; 0.3 mg/kg i.p.): 2.3 ± 0.8
Ejaculation latency (male rats [2]; 3 mg/kg i.p.): 272.8 ± 41.6 s
Intromission latency (male rats [2]; 3 mg/kg i.p.): 8.8 ± 2.0 s
Mount latency (male rats [2]; 3 mg/kg i.p.): 6.4 ± 1.5 s
Post ejaculatory interval (male rats [2]; 3 mg/kg i.p.): 485.1 ± 67.3 s
n. of intromissions (male rats [2]; 3 mg/kg i.p.): 16.8 ± 2.1
n. of mounts (male rats [2]; 3 mg/kg i.p.): 4.8 ± 1.2
